Assay results from publication PMC8300687, “A Fine-Tuned Lipophilicity/Hydrophilicity Ratio Governs Antibacterial Potency and Selectivity of Bifurcated Halogen Bond-Forming NBTIs” (Antibiotics, 2021).
Converted amounts (≈) assume the structure as drawn. Where two headings read alike, the source gives them in different places.

How the values were obtained:
M. avium = assay: MIC, M. avium; assay type: cell-based
Procedure: (§1) Antimicrobial testing was carried out by the broth microdilution method in 96-well plate format following the Clinical and Laboratory Standards Institute (CLSI) guidelines and European Committee on Antimicrobial Susceptibility Testing (EUCAST) recommendations. Bacterial suspension of specific bacterial strain equivalent to 0.5 McFarland turbidity standard was diluted with cation-adjusted Mueller Hinton broth with TES (Thermo Fisher Diagnostic, Landsmeer, The Netherlands), to obtain a final inoculum of 10^5 CFU/mL. Compounds dissolved in DMSO and inoculum were mixed together and incubated for 18–20 h at 35 °C. Suspensions of Mycobacterium sp. were prepared into a tube of Middelbrook 7H9 broth supplemented with 5% OADC (Thermo Scientific, Trek Diagnostic Systems, West Sussex, UK) and incubated for at least 10 days. After incubation the minimal inhibitory concentration (MIC) values were determined by visual inspection as the lowest dilution of compounds showing no turbidity. Tetracycline was used as a positive control on every assay plate.

[1] = test system: P. aeruginosa RDK 184 (DSM 939); assay: MIC broth microdilution, P. aeruginosa; assay type: cell-based
Procedure: as §1

in vitro = conditions: for Papp at 4 h: PAMPA
Procedure: Prior to the measurements of solubility and permeability isocratic HPLC methods were developed. […] The individual method parameters for each compound are given in the Supplementary Materials Table S1.
A 96-well precoated three-layer PAMPA plates (Corning® Gentest™ Pre-coated PAMPA Plate System, Corning, NY, USA) were used according to the manufacturer’s instructions and as described previously with 300 µL of the donor solutions in the bottom compartment and 200 µL of the acceptor solution (pH 7.4 PBS) in the upper compartment at 37 °C and a 4-h incubation time. The initial and end donor solutions were injected at a 5 µL injection volume. The initial donor solutions were also diluted 100-fold and injected at a 100 µL injection volume to serve as external references for the end acceptor solutions which were injected at the same injection volume. The permeability calculations were made with a manufacturer-provided Excel spreadsheet directly from the measured peak areas accounting for the relevant dilutions and injection volumes.

E. coli N43 (CGSC# 5583) = assay: MIC broth microdilution, E. coli N43; assay type: cell-based; conditions: Escherichia coli
Procedure: as §1

HUVEC = assay: Metabolic activity assessment (cytotoxicity), HUVEC; assay type: cell-based; conditions: Homo sapiens, metabolic activity after 72 h treatment
Procedure: Cells of the HepG2 line (ATCC® HB-8065™) and HUVEC (ATCC® CRL-1730™) were cultured in Dulbecco’s Modified Eagle Medium (DMEM; Sigma-Aldrich, St. Louis, MO, USA) supplemented with 10% heat-deactivated FBS (Gibco, Grand Island, NE, USA), 2 mM L-glutamine, 100 U/mL penicillin, 100 μg/mL streptomycin (all from Sigma-Aldrich, St. Louis, MO, USA) in a humidified chamber at 37 °C and 5% CO2. The experiments were carried out on passages 7–9 for both cell lines. The tested compounds were dissolved in DMSO and further diluted in culture medium to a desired final concentration. Cells were seeded into 96-well plates at 8 × 10^4 cells/mL (100 μL/well) and incubated for 24 h to attach onto the wells. Cells were treated with 1 μM and 50 μM of each compound of interest or corresponding vehicle as control. […] The metabolic activity was assessed after 72 h treatment using the CellTiter 96 Aqueous One Solution Cell Proliferation Assay (Promega, Madison, WI, USA), in accordance with the manufacturer’s instructions. The absorbance was measured at 492 nm on an automated microplate reader BioTek Synergy HT (BioTek Instruments, Inc., Winooski, VT, USA). Data are presented as the percentage of metabolic activity of control cells stimulated with vehicle or as IC50 value (mean ± SD) from two independent experiments, each conducted in duplicate or triplicate. IC50 values were calculated by a non-linear regression model using Graph Pad Prism 7 software.

MRSA (QA-11.6) = assay: MIC broth microdilution, MRSA QA-11.6; assay type: cell-based, methicillin-resistant S. aureus; conditions: Staphylococcus aureus, read-out: MIC MRSA (QA-11.6)
Procedure: as §1

S. aureus Topo IV = molecular target: T1, S. aureus Topo IV (Staphylococcus aureus, UniProt Q2FYS4); assay: biochemical; conditions: for LE Topo IV S. aureus: LE = (1.37/HA) × pIC50; for IC50: mean of two to four measurements, read-out: Topoisomerase IV IC50 S. aureus
T1 construct: purchased Inspiralis (Norwich, UK)
Procedure: A Topo IV Relaxation High Throughput Plate assay kit, purchased from Inspiralis (Norwich. UK) was used to determine IC50 values of compounds on S. aureus and E. coli. […] Biotinylated oligonucleotide in wash buffer was immobilized onto the wells, and the excess oligonucleotide was washed off with wash buffer and ultrapure water. 1.5 U of S. aureus or E. coli […] enzyme was incubated together with 0.75 μg of supercoiled pNO1 plasmid as a substrate in the presence of 3 μL inhibitor solution in 10% DMSO and 0.008% Tween 20 at 37 °C for 30 min in a final reaction volume of 30 μL in dilution buffer (50 mM Tris-HCl (pH 7.5), 1 mM DTT, 1 mM EDTA, 40% (w/v) glycerol for S. aureus and 40 mM HEPES, KOH (pH 7.6), 100 mM potassium glutamate, 1 mM DTT, 1 mM EDTA, and 40% (v/v) glycerol for E. coli). The reactions were stopped by adding the TF buffer (50 mM NaOAc (pH 4.7), 50 mM NaCl, and 50 mM MgCl2) to allow the triplex formation (biotin-oligonucleotide-plasmid) for additional 30 min. Afterward, the unbound plasmid was washed off using TF buffer, and the solution of Promega Diamond dye in T10 buffer (10 mM Tris-HCl (pH 8.0), 1 mM EDTA) was added. […] IC50 value represents the mean of two to four independent measurements.

E. coli (QA-11.3) = assay: MIC broth microdilution, E. coli QA-11.3; assay type: cell-based
Procedure: as §1

S. pneumoniae (QA-10/02) = assay: MIC broth microdilution, S. pneumoniae; assay type: cell-based; conditions: Streptococcus pneumoniae
Procedure: as §1

[2] = test system: S. alachua RDK 030c (QA-1482/04); assay: MIC broth microdilution, S. alachua; assay type: cell-based
Procedure: as §1

S. aureus (ATCC 29213) = assay: MIC broth microdilution, S. aureus ATCC 29213; assay type: cell-based
Procedure: as §1

E. coli D22 = assay: MIC broth microdilution, E. coli D22; assay type: cell-based; conditions: Escherichia coli
Procedure: as §1

[3] = Mycobacterium avium; read-out: MIC M. avium
[4] = Pseudomonas aeruginosa, DSM939; read-out: MIC P. aeruginosa RDK 184 (DSM 939)
[5] = read-out: E. coli N43 MIC in molar
[6] = read-out: MIC E. coli N43 (CGSC# 5583)
[7] = resistant to cefoxitin, gentamicin, sulfamethoxazole, tetracycline
[8] = Escherichia coli, 20 h; read-out: MIC E. coli (QA-11.3)
[9] = Salmonella; read-out: MIC S. alachua RDK 030c (QA-1482/04)
[10] = Staphylococcus aureus, ATCC29213; S. aureus ATCC 29213; read-out: S. aureus MIC (converted)
[11] = Staphylococcus aureus, ATCC29213; read-out: MIC S. aureus (ATCC 29213)
[12] = D22, mutation in the lpxC gene that increases membrane permeability, read-out: MIC E. coli D22

T1 sequence (Q2FYS5 whole entry): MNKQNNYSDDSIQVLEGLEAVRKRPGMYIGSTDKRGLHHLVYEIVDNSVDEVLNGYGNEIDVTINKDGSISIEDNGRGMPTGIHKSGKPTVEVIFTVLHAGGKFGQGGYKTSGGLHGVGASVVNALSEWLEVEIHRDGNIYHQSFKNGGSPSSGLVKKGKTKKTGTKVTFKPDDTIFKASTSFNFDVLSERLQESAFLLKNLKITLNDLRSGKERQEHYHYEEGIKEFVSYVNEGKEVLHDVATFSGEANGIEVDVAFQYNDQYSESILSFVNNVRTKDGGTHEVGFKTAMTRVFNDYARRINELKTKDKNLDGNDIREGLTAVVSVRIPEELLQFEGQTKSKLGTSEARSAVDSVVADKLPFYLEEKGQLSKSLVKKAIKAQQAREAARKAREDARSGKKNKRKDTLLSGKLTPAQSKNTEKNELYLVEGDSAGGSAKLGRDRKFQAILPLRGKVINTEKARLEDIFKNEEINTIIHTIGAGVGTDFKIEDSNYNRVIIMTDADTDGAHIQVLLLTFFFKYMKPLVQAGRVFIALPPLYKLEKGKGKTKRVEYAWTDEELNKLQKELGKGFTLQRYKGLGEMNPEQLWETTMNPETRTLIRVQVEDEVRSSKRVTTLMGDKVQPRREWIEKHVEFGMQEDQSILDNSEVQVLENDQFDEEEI
T1 sequence (Q2FYS4 whole entry): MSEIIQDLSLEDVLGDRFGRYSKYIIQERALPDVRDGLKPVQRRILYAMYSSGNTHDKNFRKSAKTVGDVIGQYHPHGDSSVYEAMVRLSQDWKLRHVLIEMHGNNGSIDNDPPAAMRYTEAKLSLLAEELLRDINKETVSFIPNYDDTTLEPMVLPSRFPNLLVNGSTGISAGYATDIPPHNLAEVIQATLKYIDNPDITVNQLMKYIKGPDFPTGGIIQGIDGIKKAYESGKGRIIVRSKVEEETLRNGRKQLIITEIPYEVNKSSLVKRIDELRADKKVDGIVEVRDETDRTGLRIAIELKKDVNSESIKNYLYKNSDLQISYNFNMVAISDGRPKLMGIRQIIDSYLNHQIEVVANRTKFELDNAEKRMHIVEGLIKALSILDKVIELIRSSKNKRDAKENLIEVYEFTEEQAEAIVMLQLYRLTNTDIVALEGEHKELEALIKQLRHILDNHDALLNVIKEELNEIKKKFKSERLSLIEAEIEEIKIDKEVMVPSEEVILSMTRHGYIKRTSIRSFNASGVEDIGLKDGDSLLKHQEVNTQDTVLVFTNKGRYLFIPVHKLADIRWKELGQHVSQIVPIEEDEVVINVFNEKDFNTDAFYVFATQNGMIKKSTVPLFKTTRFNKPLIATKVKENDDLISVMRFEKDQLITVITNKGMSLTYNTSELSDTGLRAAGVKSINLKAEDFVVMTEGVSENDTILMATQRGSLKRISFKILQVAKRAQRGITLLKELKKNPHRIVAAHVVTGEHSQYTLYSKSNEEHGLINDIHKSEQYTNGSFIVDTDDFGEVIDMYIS

SMILES	MIC (M. avium; [3]) [mg/L]	MIC [1, 4] [mg/L]	Papp at 4 h (in vitro) [nm/s]	Papp at 4 h (in vitro; pH 7.4) [nm/s]	MIC (E. coli N43 (CGSC# 5583); [5]) [µM]	MIC (E. coli N43 (CGSC# 5583); [6]) [mg/L]	IC50 (HUVEC) [µM]	MIC (MRSA (QA-11.6); [7]) [mg/L]	LE Topo IV S. aureus (S. aureus Topo IV)	IC50 (S. aureus Topo IV) [µM]	MIC (E. coli (QA-11.3); [8]) [mg/L]	MIC (S. pneumoniae (QA-10/02)) [mg/L]	MIC [2, 9] [mg/L]	MIC (S. aureus (ATCC 29213); [10]) [µM]	MIC (S. aureus (ATCC 29213); [11]) [mg/L]	MIC (E. coli D22; [12]) [mg/L]	IC50 (HUVEC; 72 h) [µM]	further results
COc1ccc2nccc(CCN3CCC(NCc4cnn(-c5ccccc5)c4)CC3)c2n1 [Compound 5, 1-(2-(6-Methoxy-1,5-naphthyridin-4-yl)ethyl)-N-((1-phenyl-1H-pyrazol-4-yl)methyl)piperidin-4-amine]	64 (≈ 145 µM)	> 128	> 27	255	2.26	1	10.7 ± 0.01	1 (≈ 2.26 µM)	0.19	29.6 ± 0.54	2 (≈ 4.52 µM)	0.5 (≈ 1.13 µM)	64 (≈ 145 µM)	0.57	0.25	1 (≈ 2.26 µM)		
COc1ccc2nccc(CCN3CCC(NCc4c(C)nc5c(C)cccn45)CC3)c2n1 [Compound 6, N-((2,8-Dimethylimidazo[1,2-a]pyridin-3-yl)methyl)-1-(2-(6-methoxy-1,5-naphthyridin-4-yl)ethyl)piperidin-4-amine]			> 27	56	288	128	> 50			> 100		> 128						MIC (M. avium; Mycobacterium avium, read-out: MIC M. avium): > 128 mg/L; MIC ([1]; Pseudomonas aeruginosa, DSM939, read-out: MIC P. aeruginosa RDK 184 (DSM 939)): > 128 mg/L; MIC (MRSA (QA-11.6)): > 128 mg/L; MIC (E. coli (QA-11.3); Escherichia coli, 20 h, read-out: MIC E. coli (QA-11.3)): 128 mg/L (≈ 288 µM); MIC ([2]; Salmonella, read-out: MIC S. alachua RDK 030c (QA-1482/04)): > 128 mg/L; MIC (S. aureus (ATCC 29213); Staphylococcus aureus, ATCC29213, read-out: MIC S. aureus (ATCC 29213)): > 128 mg/L; MIC (S. aureus (ATCC 29213); Staphylococcus aureus, ATCC29213, read-out: S. aureus MIC in molar): 288 µM; MIC (E. coli D22; D22, read-out: MIC E. coli D22): > 128 mg/L
COc1ccc2nccc(CCN3CCC(NCc4cnn(-c5ccccc5)n4)CC3)c2n1 [Compound 8, 1-(2-(6-Methoxy-1,5-naphthyridin-4-yl)ethyl)-N-((2-phenyl-2H-1,2,3-triazol-4-yl)methyl)piperidin-4-amine]	32 (≈ 72.1 µM)	> 128	> 27	106	2.26	1	39.4 ± 5.47	0.5 (≈ 1.13 µM)		> 100	32 (≈ 72.1 µM)	0.25 (≈ 0.564 µM)	> 128	1.13	0.5	32 (≈ 72.1 µM)		
COc1ccc2nccc(CCN3CCC(NCc4cnn(C(C)C)c4)CC3)c2n1 [Compound 9, N-((1-Isopropyl-1H-pyrazol-4-yl)methyl)-1-(2-(6-methoxy-1,5-naphthyridin-4-yl)ethyl)piperidin-4-amine]	128 (≈ 313 µM)	> 128	> 27	33	0.61	0.25	> 50	1 (≈ 2.45 µM)	0.20	40.38 ± 0.09	4 (≈ 9.79 µM)	0.5 (≈ 1.22 µM)	64 (≈ 157 µM)	0.31	0.125	1 (≈ 2.45 µM)		
C=CCn1cc(CNC2CCN(CCc3ccnc4ccc(OC)nc34)CC2)cn1 [Compound 10, N-((1-Allyl-1H-pyrazol-4-yl)methyl)-1-(2-(6-methoxy-1,5-naphthyridin-4-yl)ethyl)piperidin-4-amine]	> 128	> 128	> 27	41	2.46	1	> 50	4 (≈ 9.84 µM)		> 100	8 (≈ 19.7 µM)	1 (≈ 2.46 µM)	128 (≈ 315 µM)	4.92	2	8 (≈ 19.7 µM)		
COc1ccc2nccc(CCN3CCC(NCc4ccc(CO)cc4)CC3)c2n1 [Compound 16]	> 128	> 128		15	39.4	16		4 (≈ 9.84 µM)		> 100	32 (≈ 78.7 µM)	2 (≈ 4.92 µM)	> 128	9.84	4	16 (≈ 39.4 µM)	> 50	PAMPA permeability classification [low/high] (in vitro; relative to reference drugs): int erm ediat e
COc1ccc2nccc(CCN3CCC(NCc4ccc(OC(F)F)c(OC)c4)CC3)c2n1 [Compound 19, N-(4-(Difluoromethoxy)-3-methoxybenzyl)-1-(2-(6-methoxy-1,5-naphthyridin-4-yl)ethyl)piperidin-4-amine]	128 (≈ 271 µM)	> 128	> 27	90	2.12	1		2 (≈ 4.23 µM)	0.18	29 ± 1.89	4 (≈ 8.46 µM)	2 (≈ 4.23 µM)	128 (≈ 271 µM)	2.12	1	16 (≈ 33.9 µM)	19.8 ± 2.58	
COc1ccc2nccc(CCN3CCC(NCc4ccc(OC(F)F)c(O)c4)CC3)c2n1 [Compound 20, 2-(Difluoromethoxy)-5-((1-(2-(6-methoxy-1,5-naphthyridin-4-yl)ethyl)piperidin-4-ylamino)methyl)phenol]	128 (≈ 279 µM)	> 128	> 27	30	1.09	0.5		1 (≈ 2.18 µM)		> 100	1 (≈ 2.18 µM)	1 (≈ 2.18 µM)	64 (≈ 140 µM)	1.09	0.5	2 (≈ 4.36 µM)	29.8 ± 1.13	
